From publication PMC9046991, “Preparation, Characterization, and Cytoprotective Effects on HUVECs of Fourteen Novel Angiotensin-I-Converting Enzyme Inhibitory Peptides From Protein Hydrolysate of Tuna Processing By-Products” (Frontiers in Nutrition, 2022)
Like-named read-outs stand apart in the source and are kept apart here. Where a SMILES comes first, the peptide text is derived from it.

Experiments:
ACE = conditions: cited from earlier work; for IC50: data in the AHTPDB database, read-out: IC50 (ACEi ability)
Excerpt: Then, Ser residue, especially its hydroxyl group, should play a vital effect on the ACEi capability of STAP4, STAP7, and STAP11 ([67]). Yust et al. made clear that short peptide sequences ...

HUVECs [1] = assay: HUVEC cell viability (MTT assay); type: cell-based, human
Procedure: After thawing, HUVECs were maintained in cultured flasks and cultured to confluence in DMEM containing 1% penicillin-streptomycin liquid, supplemented with 10% FBS. HUVECs received the culturing process at 37°C in a humidified 5% CO2 atmosphere ([34]).
The cytotoxicity of STAP3, STAP4, STAP7, and STAP11 on HUVECs was assessed using MTT assay on manufacturer's instructions ([34]). In brief, HUVECs received the incubation in 96-well plates at a density of 0.8 × 10^4 cells per well with 180 μl completed DMEM. Following the confluence of 50–60% in the 96-well plates, cells were treated with 20 μl peptides under-designed concentrations (100, 200, and 400 μM) and further cultured for 24 h at 37°C. Subsequently, cells were added with 20 μL MTT solutions (5 mg/mL) and incubated for 4 h. Finally, DMSO was added into each well and the absorbance (A) at 490 nm was determined. The cell viability was calculated as:
Cell viability(% of blank control)=(Aexperiment group/Acontrol group)×100.

HUVECs [2] = assay: NO production in HUVECs; type: cell-based, human; conditions: 24 h, mean ± SD
Excerpt: NO and ET-1 productions in treated cells were obtained by employing human NO and ET-1 assay kits according to the manufacturers' protocol.

HUVECs [3] = assay: ET-1 secretion of HUVECs; type: cell-based, human; conditions: NE 0.5 μM, 24 h, mean ± SD
Procedure: The NO and ET-1 contents of HUVECs were determined after a 24 h treatment of ACEi peptides (STAP3, STAP4, STAP7, and STAP11, respectively) ([34]). HUVECs received the plating process in 6-well plates and the treating process with Cap (1 μM), NE (0.5 μM), designed concentrations of ACEi peptides (100, 200, and 400 μM) for 24 h, or treated with both NE (0.5 μM) and 200 μM ACEi peptides for 24 h. NO and ET-1 productions in treated cells were obtained by employing human NO and ET-1 assay kits according to the manufacturers' protocol.

[4] = 100, 200 and 400 μM, 24 h, MTT, % of blank control

Compound: IRWCT [ACEi peptide in the AHTPDB database]
- IC50 (ACE): 1000 nM

Compound: MIFPGAGGPEL [ACEi peptide in the AHTPDB database]
- IC50 (ACE): 30 nM

Compound: CC(C)C[C@H](N)C(=O)N1CCC[C@H]1C(=O)N[C@@H](CCCNC(=N)N)C(=O)N[C@@H](CO)C(=O)O [STAP11, Leu-Pro-Arg-Ser] (H-LPRS-OH)
- cell viability (HUVECs [1]; 400 µM, SD): 91.07 ± 1.36%
- cell viability (HUVECs [1]; [4]): no significant influence on the proliferation of HUVECs

Compound: LAPPTM [ACEi peptide from stone fish]
- IC50 (ACEi) (ACE; peptides from stone fish): 1310 µg/mL

Compound: PYVRYL [ACEi peptide in the AHTPDB database]
- IC50 (ACE): 1900 nM

Compound: RYRP [ACEi peptide from protein hydrolysate of Saurida elongate]
- IC50 (ACEi) (ACE; peptide from Saurida elongate): 3350 µg/mL

Compound: MVGSAPGVL [ACEi peptide from skate (Okamejei kenojei)]
- IC50 (ACEi) (ACE; peptides from Okamejei kenojei): 3090 µg/mL
- IC50 (ACEi) (ACE; peptides from skate): 3090 µg/mL

Compound: LGPLGHQ [ACEi peptide from skate (Okamejei kenojei)]
- IC50 (ACEi) (ACE; peptides from Okamejei kenojei): 3490 µg/mL
- IC50 (ACEi) (ACE; peptides from skate): 4220 µg/mL

Compound: EVLIQ [ACEi peptide from stone fish]
- IC50 (ACEi) (ACE; peptides from stone fish): 1440 µg/mL

Compound: CSCC[C@H](N)C(=O)N[C@@H](CCC(=O)O)C(=O)N[C@@H](CCCCN)C(=O)N[C@@H](CO)C(=O)O [STAP4, Met-Glu-Lys-Ser] (H-MEKS-OH)
- cell viability (HUVECs [1]; [4]): no significant influence on the proliferation of HUVECs

Compound: WRKER [ACEi peptide from Antarctic krill]
- IC50 (ACEi) (ACE; peptides from Antarctic krill): 3285 µg/mL

Compound: EHPVL [ACEi peptide from stone fish]
- IC50 (ACEi) (ACE; peptides from stone fish): 1680 µg/mL

Compound: NC[C@H](O)c1ccc(O)c(O)c1 [NE, norepinephrine]
- NO level (HUVECs [2]; NE 0.5 μM): 24.25 ± 0.63 μmol/gprot
- ET-1 secretion (HUVECs [3]): 140.23 ± 5.81 pg/mL

Compound: C[C@@H](O)[C@H](N)C(=O)N[C@@H](CCC(=O)O)C(=O)O [STAP1, Thr-Glu] (H-Thr-Glu-OH)
- cell viability (HUVECs [1]; 100 µM, SD): 108.52 ± 5.19%

Compound: VFPS [ACEi peptide in the AHTPDB database]
- IC50 (ACE): 460 nM

Compound: C[C@H](CS)C(=O)N1CCC[C@H]1C(=O)O [Cap, captopril]
- NO level (HUVECs [2]; Cap 1 μM, positive control): 65.96 ± 1.83 μmol/gprot

Compound: CSCC[C@H](N)C(=O)N[C@@H](CCCCN)C(=O)N[C@@H](CCCCN)C(=O)N[C@@H](CO)C(=O)O [STAP7, Met-Lys-Lys-Ser] (H-MKKS-OH)
- cell viability (HUVECs [1]; [4]): no significant influence on the proliferation of HUVECs
